According to US20040019082A1, “Reversible infertility in male mice following oral administration of alkylated imino sugars: a non-hormonal approach to male contraception” (United Therapeutics Corporation, priority 2002, published 2004):
Like-named read-outs stand apart in the source and are kept apart here.

How the values were obtained:
[1] = system: epididymal spermatozoa; test: Fluorescence microscopy of epididymal spermatozoa (nuclear morphology, acrosomal antigens); assay type: in vivo, mouse
Method: Fluorescence microscopy—For immunofluorescence, freshly exised vasa deferentia were stripped and caudae epididymides were dissociated with forceps in M2 medium, and spermatozoa were allowed to disperse for 15 min. The resultant suspensions were used to prepare smears on glass slides. After drying in air for 1 hr, cells were fixed in methanol for 2 min., dried and stored at room temperature or 4° C. for one to five days. Before immunostaining smears were immersed in methanol for 5 min., dried, and wetted in PBS containing 0.5% BSA and 0.15 M glycine (PBG). Slides were stained with monoclonal antibodies, either Mab18.6 (1:20 in PBG (Moore, H. D., Smith, C. A., Hartman, T. D. & Bye, A. P. (1987) Gamete Res 17, 245-9)), anti-sp56 (1:67 in PBG, clone 7C5, QED Bioscience (Cheng, A., Le, T., Palacios, M., Bookbinder, L. H., Wassarman, P. M., Suzuki, F. & Bleil, J. D. (1994) J Cell Biol 125, 867-78), and goat anti-mouse immunoglobulins γ and light chains-specific fluorescein isothiocyanate-conjugate (Ortho) according to van Dongen et al. (van Dongen, J. M., Willemsen, R., Ginns, E. I., Sips, H. j., Tager, J. M., Barranger, J. A. & Reuser, A. J. (1985) Eur J Cell Biol 39, 179-189.) Following immunostaining, nuclei were stained for 2 min in 5 μg/ml Hoechst 33342 (Molecular Probes); slides were rinsed in distilled water, and mounted with Vectashield (Vector). Fluorescent probes were examined using an Olympus BX50 microscope equipped with a Princeton Instruments CCD camera. Images were aquired, false-coloured, and overlaid with Metamorph v3.5 software, and further processed with Adobe Photoshop.

[2] = system: epididymal sperm; test: Epididymal sperm count; assay type: in vivo, mouse; settings: at loss of fertility caused by the drug
[3] = system: mouse models with impaired GSL degradation; settings: in vivo; cited from earlier work
[4] = humans; cited from earlier work
[5] = system: epididymal spermatozoa; test: Electron microscopy of epididymal spermatozoa; assay type: in vivo, mouse
Method: For scanning electron microscopy, dried smears of murine spermatozoa were prepared as described above. Cells were fixed for 20 min in 4% paraformaldehyde in PBS, transferred to 70, 80 and 95% ethanol, critical-point dried in a Polaron CPD7501 instrument, gold-coated using a Nanotech Semprep2, and examined in a Hitachi S800 FEG-SEM at 3 kV. For transmission electronmicroscopy epididymal spermatozoa were collected in 1 mg/ml cold water soluble polyvinylalcohol in PBS, and spun for 10 min. at 600×g. Pelleted cells were fixed overnight at 4° C. with 1% glutaraldehyde, 0.2% picric acid in 0.2 M cacodylic acid pH 7.4, washed once in 0.1 M cacodylic acid pH 7.4, and stored in 70% ethanol. Cells were postfixed with 2% osmium letroxide, embedded in araldite, sectioned at 70 nm, stained with uranyl acetate/lead citrate, and examined with a JEOL JEM-100CX microscope at 80 kV.

[6] = system: female C57BL/6 mice; test: Mating assay, fertility of treated female mice; assay type: in vivo, mouse; settings: 1200 mg/kg/day for five weeks, four-day mating with untreated males, n=5
Method: (§1) Mating assays—To assess the fertility of male mice that were fed on a diet containing an iminosugar, a mating assay was used: typically six week old male C57BL/6 mice in groups of three were administered diet containing compound for five weeks (unless otherwise specified), after which each of them was caged with four untreated female C57BL/6 mice, and provided with standard pelleted chow. Females were at least 11 weeks old, and age-matched in each experiment. The male was removed from the females after 7 or 9 days, depending on the experiment; the females were monitored for vaginal mucous plugs, pregnancies, and, if any, litter sizes. To study any effect on female fertility six-week-old female C57BL/6 mice were treated with NB-DNJ for five weeks, after which each of them was caged with a non-treated age-matched male for four days.
Following a four-day mating period with untreated males, 100% of treated (n=5) as well as of non-treated females (n=4) became pregnant; these mice had 6.2±2.7 and 7.8±1.0 pups per litter, respectively.

[7] = system: male C57BL/6 mice; test: Mating assay, fertility of male mice; assay type: in vivo, mouse
Text: Treatment of mice—Male C57BL/6 mice were housed under standard non-sterile conditions. The mice were provided with water ad lib. and prior to drug administration were fed a diet of pelleted mouse chow (expanded Rat and Mouse Chow 3, SDS Ltd.) To administer the compounds of the present invention, the mice were fed a diet of powdered mouse chow (expanded Rat and Mouse Chow 1, ground, SDS Ltd.) containing either NB-DNJ, NB-DGJ, NN-6-MeDGJ, or DNJ. The diet and compound (both as dry solids) were mixed thoroughly, stored at room temperature, and used within 7 days of mixing.
as §1

[8] = system: ganglioside GM1 on the surface of mouse splenocytes; settings: cited from earlier work
[9] = Body, gonad and organ weights of treated mice; assay type: in vivo, mouse
[10] = 5 mg/kg per day, five weeks in diet
[11] = 2400 mg/kg per day, taken off the drug after five weeks of treatment
[12] = highest dose (2400 mg/kg/day), n=10

In the case of `CCCCN1C[C@H](O)[C@@H](O)[C@H](O)[C@H]1CO` [NB-DNJ, N-butyldeoxynojirimycin], the “fraction of spermatozoa stained with Mab18.6 or anti-sp56 (acrosomal antigens)” value ([1]; 15 mg/kg/day) is reported as “below 10%”, the “nuclear shape of cauda epididymal sperm cells” value ([1]; 150 mg/kg/day (FIGS. 4D-4F)) is reported as “various abnormally shaped nuclei” and the “frequency of antibody staining (acrosomal antigens)” value ([1]; 1200 mg/kg/day compared with 15-150 mg/kg/day) is reported as “more frequent”. For the same molecule, the “frequency of normal nuclear morphology” value ([1]; 1200 mg/kg/day compared with 50-150 mg/kg/day, p<0.01) was “significantly more often”, the “incidence of (near)-normal acrosomal staining among Mab18.6-positive cells” value ([1]; 15 to 1200 mg/kg/day, average, n=3) was 31±10% and the “percentage of caudal spermatozoa with (near)-normal nuclei” value ([1]; minimal dose to achieve complete infertility) was “below 6%”. The epididymal sperm count [2] was “not associated with a reduction”, the therapeutic effect [3] was “therapeutically effective” and the tolerability [4] was “well tolerated”. The “tails and mitochondria of epididymal spermatozoa” value ([5]; 1,200 mg/kg/day (FIG. 5)) was “induced a number of abnormalities”, the “acrosomal elements covering the nuclei, ultrastructural level” value ([5]; 1,200 mg/kg/day (FIGS. 5D-5F)) was “no typical acrosomal elements were seen” and the “females that became pregnant” value [6] was 100%. The pups per litter [6] was 6.2±2.7, the fertility ([7]; 1 mg/kg per day, five weeks in diet) was “did not affect” and the “fertility (pregnancies per male)” value [7, 10] was “reduced their fertility”. The litter size [7, 10] was “reduced”, the fertility ([7]; 15 mg/kg per day, five weeks in diet) was “completely infertile” and the “fertility, capacity to sire normal-sized litters” value ([7]; 2400 mg/kg per day oral, one or two weeks of treatment, six-week old males) was “this capacity was maintained”. The “infertility, length of treatment needed” value ([7]; 2400 mg/kg per day oral, weekly increments) was “infertile after at least three weeks”, the “litter size after withdrawal” value [7, 11] was “normal-sized litters” and the “regain of fertility after withdrawal” value [7, 11] was “regained fertility in the fourth week”. For the same molecule, the fertility ([7]; 13 week old males, 2400 mg/kg per day for five weeks) was “complete sterility”, the “frequency of post-coital vaginal mucous plugs (mating behavior)” value ([7]; NB-DNJ dose range, five weeks in diet) was “not affected” and the “dose required for induced infertility” value ([7]; oral, male mice) was “at least 15 mg/kg/day”. The “reduction of ganglioside GM1 levels” value ([8]; 600 mg/kg per day) was 10%, the “reduction of ganglioside GM1 levels” value ([8]; 2400 mg/kg per day) was 70% and the “weights of testes and epididymal compartments” value ([9]; 1200 and 2400 mg/kg/day) was “decreased proportionally to body weight”. For the same molecule, the “combined cauda epididymis/vas deferens weight” value [9, 12] was 43±7 % of control, the whole body weight [9, 12] was 60±5 % of control and the “body or gonad weights” value ([9]; low dose, 15-150 mg/kg/day) was “did not affect”.
